# Measured values taken from patent US10092002B2, “Herbicidal composition comprising nicosulfuron or its salt and S -metolachlor or its salt” (ISHIHARA SANGYO KAISHA, LTD., priority 2011, dated 2018).
# Assays:
# Format in all cases: in vivo
# [1] = test system: common cocklebur (Xanthium strumarium L.); assay: Test Example 1: foliar treatment of common cocklebur in pots, visual growth inhibition rate; conditions: Xanthium strumarium, foliar treatment at 4.3 to 4.8-leaf stage, 22nd day after treatment, read-out: Growth inhibition rate (%) of common cocklebur, Measured value
# Source text: When the herbicidal activity in a case where two active ingredients are combined, is larger than the simple sum of the respective herbicidal activities of the two active ingredients (the expected activity), it is called a synergistic effect. The activity expected by the combination of two active ingredients can be calculated as follows (Colby S. R., “Weed”, vol. 15, p. 20-22, 1967). E1=α+β-(α×β÷100) In a case where three active ingredients are combined, the activity can be similarly calculated as follows. […] Upland field soil was put into a 1/1,000,000 ha pot, and seeds of common cocklebur (Xanthium strumarium L.) were sown. […] Dual Gold, manufactured by Syngenta Crop Protection AG), SC agent containing terbuthylazine as an active ingredient (tradename: Click, manufactured by BASF), SC agent containing mesotrione as an active ingredient (tradename: Callisto, manufactured by Syngenta Crop Protection AG) and WG agent containing prosulfuron as an active ingredient (tradename: Peak, manufactured by Syngenta Crop Protection AG) were diluted with water in an amount corresponding to 1,000 Uha, and applied for foliar treatment by a small sprayer. On the 22nd day after treatment, the state of growth of the common cocklebur was visually observed to determine the growth inhibition rate in accordance with the following evaluation standard. The growth inhibition rate (%) (measured value) and the growth inhibition rate (%) (calculated value) calculated by the Colby's formula are shown in Table 1.
# [2] = test system: wild oat (Avena fatua L.); assay: Test Example 3: soil treatment, wild oat, visual growth inhibition rate; conditions: Avena fatua, soil treatment the day after sowing, 14th day after treatment, read-out: Growth inhibition rate (%) of wild oat, Measured value
# Source text: When the herbicidal activity in a case where two active ingredients are combined, is larger than the simple sum of the respective herbicidal activities of the two active ingredients (the expected activity), it is called a synergistic effect. The activity expected by the combination of two active ingredients can be calculated as follows (Colby S. R., “Weed”, vol. 15, p. 20-22, 1967). […] In a case where three active ingredients are combined, the activity can be similarly calculated as follows. […] On the 22nd day after treatment, the state of growth of the common cocklebur was visually observed to determine the growth inhibition rate in accordance with the following evaluation standard. The growth inhibition rate (%) (measured value) and the growth inhibition rate (%) (calculated value) calculated by the Colby's formula are shown in Table 1. […] On the 14th day after treatment, the state of growth of the wild oat was visually observed to determine the growth inhibition rate.
# [3] = test system: sunn-hemp (Crotalaria juncea L.); assay: Test Example 4: soil treatment, sunn-hemp, visual growth inhibition rate; conditions: Crotalaria juncea, soil, read-out: Growth inhibition rate (%) of sunn-hemp, Measured value
# Source text: In a case where three active ingredients are combined, the activity can be similarly calculated as follows. E2=(α+β+γ)−(αβ+αγ+βγ)/100+(αβγ)/10000 where α: growth inhibition rate when treated with x (g/ha) of herbicide X,
# Growth inhibition rate (%)=0 (equivalent to the non-treated area) to 100 (complete kill)
# Upland field soil was put into a 1/300,000 ha pot, and seeds of sunn-hemp (Crotalaria juncea L.) were sown.
smiles,measurement,setting,value
"CS(=O)(=O)c1ccc(C(=O)C2C(=O)CCCC2=O)c([N+](=O)[O-])c1 [Mesotrione, 2-(4-mesyl-2-nitrobenzoyl)cyclohexane-1,3-dione]",inhibition at 50 g/ha,[1]; dose 50 g/ha,0%
same,inhibition at 25 g/ha,[2]; dose 25 g/ha,0%
same,inhibition at 150 g/ha,[2]; dose 150 g/ha,5%
"CCNc1nc(Cl)nc(NC(C)(C)C)n1 [Terbuthylazine, N^2-tert-butyl-6-chloro-N^4-ethyl-1,3,5-triazine-2,4-diamine]",inhibition at 500 g/ha,[1]; dose 500 g/ha,10%
same,inhibition at 250 g/ha,[2]; dose 250 g/ha,25%
same,inhibition at 1500 g/ha,[2]; dose 1500 g/ha,5%
"COCCOCc1nc(C(F)(F)F)ccc1C(=O)C1=C(O)C2CCC(C2)C1=O (centres unmarked) [Bicyclopyrone, 4-hydroxy-3-{2-[(2-methoxyethoxy)methyl]-6-(trifluoromethyl)-3-pyridylcarbonyl}bicyclo[3.2.1]oct-3-en-2-one]",inhibition at 25 g/ha,[3],0%
same,inhibition at 150 g/ha,[3],20%
"COc1nc(C)nc(NC(=O)NS(=O)(=O)c2ccccc2CCC(F)(F)F)n1 [Prosulfuron, 1-(4-methoxy-6-methyl-1,3,5-triazin-2-yl)-3-[2-(3,3,3-trifluoropropyl)phenylsulfonyl]urea]",inhibition at 15 g/ha,[1]; dose 15 g/ha,88%
same,inhibition at 2.5 g/ha,[2]; dose 2.5 g/ha,25%
same,inhibition at 50 g/ha,[2]; dose 50 g/ha,0%
